{"source": "paper PMC11341980", "about": "“Dual TTK/PLK1 inhibition has potent anticancer activity in TNBC as monotherapy and in combination” (Frontiers in Oncology, 2024)", "key": {"MDA-MB-231 xenograft": {"test_system": "MDA-MB-231 xenograft", "parameters": "method as in PMID 28270606", "conditions": "daily dosing, MDA-MB-231 xenografted mice; cited from earlier work"}, "HT29 cells [1]": {"test_system": "HT29 cells", "test": "Cell growth assay, GI50s used for SAC analyses", "assay_type": "cell-based", "conditions": "Homo sapiens, HT-29; 120 h cell growth assay", "description": "Cell lines were seeded in appropriate culture medium into 96-well plates and 9 serial compound dilutions (0.004 – 1 μM) were added 24 h later for 120 h. Residual cells were stained with crystal violet or YO-PRO (Molecular Probes, #Y-3603). GI50 values were calculated by fitting the data to a sigmoidal dose–response model with a variable slope using GraphPad Prism software after subtraction of the starting control signal."}, "KT-associated BubR1": {"test_system": "KT-associated BubR1", "test": "Immunofluorescence of BubR1 at kinetochores in HT29 cells", "assay_type": "cell-based", "conditions": "nocodazole-blocked mitotic HT29 cells, 1 hour, GI50 concentration", "description": "Immunoblotting, SAC co-immunoprecipitation assays and immunofluorescence microscopy were performed using standard procedures as outlined in the Supplementary Information .\nCells were seeded on 13-mm glass coverslips in full medium and left to adhere O/N. After the appropriate treatments, cells were fixed with ice-cold 100% methanol for 5 min at -20°C and then rehydrated in PBS for 10 min. Coverslips were blocked for 30 min with 3% BSA (w/v) in PBS (BP) and then incubated with a 1:100 or 1:1000 dilution of BubR1 or CENP-C primary antibodies in BP, respectively, for 1 h in a moist environment. […] Images were projected (maximum intensity projection) using the NIS Elements AR software (Nikon) and quantification was performed using the General Analysis 2 tool. The quantification process comprised the following steps: selection of mitotic cells via intensity measurement of a threshold DAPI signal; generation of a kinetochore mask based on the intensity of bright spots (CENPC signal) inside the selected nuclei; generation of a tertiary mask for the BubR1 signal at kinetochores and BubR1 background measurements in the selected nuclei; export of reference images and signal intensities per cell."}, "BR1282 TNBC PDX [2]": {"test_system": "BR1282 TNBC PDX", "test": "BR1282 PDX combination with carboplatin", "assay_type": "in vivo, mice", "conditions": "carboplatin 60 mg/kg, IV, QW", "description": "Samples were snap frozen and stored at -80 °C. […] Carboplatin was prepared in 5% glucose in pure water."}, "[3]": {"test_system": "SK-OV-3 ovarian cell-derived xenograft", "test": "SK-OV-3 xenograft combination study with carboplatin", "conditions": "carboplatin 60 mg/kg, QW, IV alone", "description": "(§1) Animal studies were performed by Charles-River Laboratories (Wilmington, Massachusetts, USA; MDA-MB-231 xenograft experiments) or Crown Biosciences Inc, (Taicang, China; SK-OV-3 xenograft and TNBC PDX screening experiments). All studies were performed in adherence with local ethical rules.\n5x10^6 MDA-MB-231 cells were injected subcutaneously (s.c.) in the flank of NCr nude mice (n=8-15/group for efficacy experiments, n=2-3/group for tumor pharmacodynamic evaluation), 1x10^7 SK-OV-3 cells were injected s.c. in the flank of Balb/c nude mice (n=8/group) and specific PDX tumor fragments (3x3x3 mm^3) were inoculated s.c. in the flank of Balb/c nude mice or NOD/SCID mice (n=4-5/group for efficacy screening and tumor pharmacodynamic experiments, n=8/group for combination experiments). Mice were randomly grouped based on a mean tumor volume (TV) of 100-200 mm^3. For dedicated pharmacodynamic studies, treatment began with TVs of ~400 mm^3. Mice were culled when individual tumors exceeded 1500 mm^3 or if the body-weight loss (BWL) was >15% for 3 consecutive days or reached 20%. Dosing holidays were given to allow recovery for BWL >10%. When the endpoint was reached, mice were culled and plasma and tissue samples obtained. Samples were snap frozen and stored at -80 °C. In some cases, tumors were formalin-fixed and paraffin-embedded (FFPE) following standard procedures. […]"}, "BR1282 TNBC PDX [4]": {"test_system": "BR1282 TNBC PDX", "conditions": "paclitaxel 15 mg/kg, QW, IV alone", "description": "as §1\n5x10^6 MDA-MB-231 cells were injected subcutaneously (s.c.) in the flank of NCr nude mice (n=8-15/group for efficacy experiments, n=2-3/group for tumor pharmacodynamic evaluation), 1x10^7 SK-OV-3 cells were injected s.c. in the flank of Balb/c nude mice (n=8/group) and specific PDX tumor fragments (3x3x3 mm^3) were inoculated s.c. in the flank of Balb/c nude mice or NOD/SCID mice (n=4-5/group for efficacy screening and tumor pharmacodynamic experiments, n=8/group for combination experiments). Mice were randomly grouped based on a mean tumor volume (TV) of 100-200 mm^3. For dedicated pharmacodynamic studies, treatment began with TVs of ~400 mm^3. Mice were culled when individual tumors exceeded 1500 mm^3 or if the body-weight loss (BWL) was >15% for 3 consecutive days or reached 20%. Dosing holidays were given to allow recovery for BWL >10%. When the endpoint was reached, mice were culled and plasma and tissue samples obtained. Samples were snap frozen and stored at -80 °C. In some cases, tumors were formalin-fixed and paraffin-embedded (FFPE) following standard procedures. […] Paclitaxel (6 mg/mL) was prepared using the clinical formulation (Cremophor-EL) and diluted in 0.9% saline just prior to use. Carboplatin was prepared in 5% glucose in pure water. Dosing and combination regimens for each specific experiment are outlined in the text.\nBW is presented as the % ΔBW and as the fractional-change (endpoint/treatment-start) for each group. As an assessment of synergy, the Clarke-Combination-Index (CCI) was applied ([32]) where a CCI of <-0.1 was considered synergistic, >+0.1 antagonistic, and in-between, additive.\nPaclitaxel (15 mg/kg) was administered IV QW to BR1282 PDX-bearing mice. […]"}, "HT29 cells [5]": {"test_system": "HT29 cells", "test": "Flow cytometry cell cycle analysis", "assay_type": "cell-based", "conditions": "nocodazole treatment", "description": "Cells were fixed in 70% high grade ethanol, washed in PBS, incubated in propidium iodide (PI) solution (50 μg/mL PI and 0.5 mg/mL RNAse A, Sigma-Aldrich, in PBS) for 30 min and analyzed using a BD FACSCanto II flow cytometer (BD Biosciences)."}}, "note": "Marks after values point to notes of the source that are not given here."}
{"smiles": "Cc1cc(-c2cnn3c(NC[C@H]4C[C@@](C)(O)C4)cc(Oc4cccnc4)nc23)ccc1C(=O)NC1CC1", "note": "[CFI-402257]", "values": [{"measurement": "maximum tumor growth inhibition", "setting": "MDA-MB-231 xenograft", "value": 89, "unit": "%"}, {"measurement": "GI50", "setting": "HT29 cells [1]", "value": "0.031 to 0.038", "unit": "µM"}, {"measurement": "reduction in KT-associated BubR1", "setting": "KT-associated BubR1", "value": "Some reduction"}]}
{"smiles": "N.N.O=C([O-])C1(C(=O)[O-])CCC1.[Pt+2]", "note": "[Carboplatin]", "values": [{"measurement": "antitumor activity of monotherapy", "setting": "BR1282 TNBC PDX [2]", "value": "without activity"}, {"measurement": "Efficacy ΔT/C (day 23)", "setting": "[3]", "value": 0.72}, {"measurement": "Tolerability ΔT/C (day 23)", "setting": "[3]; body weight", "value": 0.97}]}
{"smiles": "CC(=O)O[C@H]1C(=O)[C@@]2(C)[C@H]([C@H](OC(=O)c3ccccc3)[C@]3(O)C[C@H](OC(=O)[C@H](O)[C@@H](NC(=O)c4ccccc4)c4ccccc4)C(C)=C1C3(C)C)[C@]1(OC(C)=O)CO[C@@H]1C[C@@H]2O", "note": "[Paclitaxel]", "values": [{"measurement": "Efficacy ΔT/C (day 16)", "setting": "BR1282 TNBC PDX [4]; Study 1", "value": 0.24}, {"measurement": "Regressions (%) (end of treatment day)", "setting": "BR1282 TNBC PDX [4]; Study 1, day 37, regressions in 1/8 mice", "value": "30 (37)* %"}, {"measurement": "Efficacy ΔT/C (day 13)", "setting": "BR1282 TNBC PDX [4]; Study 2", "value": 0.48}]}
{"smiles": "COC(=O)Nc1nc2ccc(C(=O)c3cccs3)cc2[nH]1", "note": "[nocodazole]", "values": [{"measurement": "accumulation in G2/M of the cell cycle", "setting": "HT29 cells [5]", "value": 67, "unit": "%"}]}
{"smiles": "CN1CCN(c2ccc(OC(F)(F)F)c(Nc3ncc4c(n3)-c3c(c(C(N)=O)nn3CCO)CC4)c2)CC1", "note": "[onvansertib]", "values": [{"measurement": "GI50", "setting": "HT29 cells [1]", "value": 0.014, "unit": "µM"}, {"measurement": "reduction in KT-associated BubR1", "setting": "KT-associated BubR1", "value": "minor effects"}]}
